Results reported in ChEMBL document CHEMBL3112438, “Structure-based optimization of cyclopropyl urea derivatives as potent soluble epoxide hydrolase inhibitors for potential decrease of renal injury without hypotensive action” (Bioorg Med Chem, 2014).
Values after ≈ are worked out from the molar mass of the structure shown. Active and inactive are the calls of the source. The calls are words filed in the database; no cut-off is given here.

How the values were obtained:
[1] = molecular target: T1, Bifunctional epoxide hydrolase 2 (Homo sapiens, UniProt P34913); assay: Inhibition of human recombinant soluble epoxide hydrolase after 1 hr by fluorescence assay
T1 sequence (P34913 whole entry): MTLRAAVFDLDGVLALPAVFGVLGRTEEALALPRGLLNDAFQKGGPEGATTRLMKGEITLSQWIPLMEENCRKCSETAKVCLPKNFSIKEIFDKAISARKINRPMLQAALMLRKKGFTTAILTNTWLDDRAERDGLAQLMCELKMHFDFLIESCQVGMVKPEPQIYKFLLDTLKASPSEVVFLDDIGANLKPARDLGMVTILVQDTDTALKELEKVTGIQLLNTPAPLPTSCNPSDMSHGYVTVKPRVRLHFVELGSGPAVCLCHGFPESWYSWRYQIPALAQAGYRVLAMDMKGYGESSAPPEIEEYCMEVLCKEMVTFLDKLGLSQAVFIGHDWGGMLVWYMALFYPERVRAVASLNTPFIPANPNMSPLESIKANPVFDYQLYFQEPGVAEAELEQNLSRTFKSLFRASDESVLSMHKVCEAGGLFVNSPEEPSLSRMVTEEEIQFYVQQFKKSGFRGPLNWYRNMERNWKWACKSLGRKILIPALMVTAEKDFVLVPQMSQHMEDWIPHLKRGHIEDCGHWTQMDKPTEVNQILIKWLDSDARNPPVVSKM

[2] = molecular target: T2, Bifunctional epoxide hydrolase 2 (Rattus norvegicus, UniProt P80299); assay: Inhibition of rat recombinant soluble epoxide hydrolase after 1 hr by fluorescence assay
T2 sequence (P80299 whole entry): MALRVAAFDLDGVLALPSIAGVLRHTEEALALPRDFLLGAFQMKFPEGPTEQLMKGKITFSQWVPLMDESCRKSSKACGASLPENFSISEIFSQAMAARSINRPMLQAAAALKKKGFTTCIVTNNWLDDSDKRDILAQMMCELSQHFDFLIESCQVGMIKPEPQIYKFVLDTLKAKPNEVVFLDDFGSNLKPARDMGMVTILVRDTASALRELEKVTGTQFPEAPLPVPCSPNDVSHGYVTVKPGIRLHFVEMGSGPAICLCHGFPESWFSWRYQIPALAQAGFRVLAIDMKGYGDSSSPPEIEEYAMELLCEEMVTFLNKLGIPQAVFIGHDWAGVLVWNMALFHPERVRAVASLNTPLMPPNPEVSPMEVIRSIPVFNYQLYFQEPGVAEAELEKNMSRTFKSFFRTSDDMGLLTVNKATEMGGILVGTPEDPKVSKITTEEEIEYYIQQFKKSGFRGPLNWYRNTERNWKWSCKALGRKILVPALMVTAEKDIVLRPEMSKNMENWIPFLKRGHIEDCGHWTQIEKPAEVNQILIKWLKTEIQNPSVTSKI

Liver microsome [3] = assay: Intrinsic clearance in human liver microsomes measured per mg of protein at 1 uM after 30 mins by LC/MS/MS analysis; type: ADME; conditions: 0.5 h
[4] = Aqueous solubility of the compound at pH 7.4 after 90 mins; type: physicochemical
Liver microsome [5] = assay: Intrinsic clearance in rat liver microsomes measured per mg of protein at 1 uM after 30 mins by LC/MS/MS analysis; type: ADME; conditions: 0.5 h
Cytochrome P450 2C19 [6] = molecular target: T3, Cytochrome P450 2C19 (Homo sapiens, UniProt P33261); assay: Inhibition of CYP2C19 in human liver microsomes after 10 mins by LC/MS/MS analysis; type: ADME
T3 sequence (P33261 whole entry): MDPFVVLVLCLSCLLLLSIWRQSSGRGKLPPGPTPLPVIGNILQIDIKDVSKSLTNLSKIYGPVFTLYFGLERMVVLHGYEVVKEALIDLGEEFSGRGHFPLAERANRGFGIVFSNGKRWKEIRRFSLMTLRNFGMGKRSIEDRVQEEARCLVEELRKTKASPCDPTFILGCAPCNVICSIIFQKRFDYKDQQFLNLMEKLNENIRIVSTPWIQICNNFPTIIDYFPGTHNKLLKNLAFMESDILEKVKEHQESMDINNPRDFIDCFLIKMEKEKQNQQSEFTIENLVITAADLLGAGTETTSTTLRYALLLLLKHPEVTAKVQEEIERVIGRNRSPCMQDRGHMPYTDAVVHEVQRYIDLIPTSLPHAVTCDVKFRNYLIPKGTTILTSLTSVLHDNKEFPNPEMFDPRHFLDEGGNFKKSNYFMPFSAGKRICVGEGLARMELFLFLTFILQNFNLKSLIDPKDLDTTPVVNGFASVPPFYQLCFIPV

Cytochrome P450 2C8 [7] = molecular target: T4, Cytochrome P450 2C8 (Homo sapiens, UniProt P10632); assay: Inhibition of CYP2C8 in human liver microsomes after 10 mins by LC/MS/MS analysis; type: ADME
T4 sequence (P10632 whole entry): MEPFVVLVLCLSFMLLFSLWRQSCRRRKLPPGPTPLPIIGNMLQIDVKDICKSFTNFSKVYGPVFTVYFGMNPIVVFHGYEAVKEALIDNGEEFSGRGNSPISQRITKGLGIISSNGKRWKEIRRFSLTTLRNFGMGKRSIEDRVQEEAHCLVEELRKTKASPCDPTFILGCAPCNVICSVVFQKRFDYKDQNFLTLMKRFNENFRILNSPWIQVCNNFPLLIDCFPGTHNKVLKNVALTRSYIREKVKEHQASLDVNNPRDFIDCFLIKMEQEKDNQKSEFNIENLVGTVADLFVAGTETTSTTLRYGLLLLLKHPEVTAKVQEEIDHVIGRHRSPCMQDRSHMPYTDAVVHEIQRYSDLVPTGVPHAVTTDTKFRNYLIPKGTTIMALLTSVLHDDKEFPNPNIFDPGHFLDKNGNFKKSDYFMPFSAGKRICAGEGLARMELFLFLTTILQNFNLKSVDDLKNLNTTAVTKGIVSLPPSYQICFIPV

Rattus norvegicus [8] = assay: AUC in Sprague-Dawley rat at 10 mg/kg, po; type: ADME, organism-based, Plasma; set-up: dose 10 mg/kg, route oral; conditions: in vivo
Rattus norvegicus [9] = assay: Bioavailability in Sprague-Dawley rat at 1 mg/kg, iv and 10 mg/kg, po; type: ADME, organism-based; conditions: in vivo
Rattus norvegicus [10] = assay: Renal toxicity in Sprague-Dawley rat DOCA-salt model assessed as effect on N-acetyl-beta-D-glucosaminidase level at 100 mg/kg, po measured on day 28 post last dose; type: organism-based; set-up: dose 100 mg/kg, route oral; conditions: in vivo
Rattus norvegicus [11] = assay: Renoprotective activity in Sprague-Dawley rat DOCA-salt model assessed as decrease in urinary MCP-1 excretion at 100 mg/kg, po measured on day 28 post last dose; type: functional, organism-based; set-up: dose 100 mg/kg; conditions: Urine
Rattus norvegicus [12] = assay: Renoprotective activity in Sprague-Dawley rat DOCA-salt model assessed as decrease in urinary albumin excretion at 100 mg/kg, po measured on day 28 post last dose; type: functional, organism-based; set-up: dose 100 mg/kg; conditions: Urine
Rattus norvegicus [13] = assay: Ex vivo inhibition of soluble epoxide hydrolase in po dosed Sprague-Dawley rat assessed as inhibition of 14,15-DHET production measured after 1 to 24 hrs by ELISA; type: functional, organism-based
Rattus norvegicus [14] = assay: Ex vivo inhibition of soluble epoxide hydrolase in Sprague-Dawley rat whole blood assessed as inhibition of 14,15-DHET production at 100 mg/kg, po measured after 1 to 6 hrs by ELISA relative to vehicle-treated control; type: functional
Rattus norvegicus [15] = assay: Antihypertensive activity in Sprague-Dawley rat DOCA-salt model assessed as decrease in systolic blood pressure at 100 mg/kg, po measured on day 28 post last dose by tail-cuff method; type: functional, organism-based; set-up: dose 100 mg/kg; conditions: Artery
Cytochrome P450 2C8 [16] = molecular target: T4, Cytochrome P450 2C8; assay: Inhibition of CYP2C8 in human liver microsomes after 10 mins by mechanism-based assay; type: ADME
Cytochrome P450 2C19 [17] = molecular target: T3, Cytochrome P450 2C19; assay: Inhibition of CYP2C19 in human liver microsomes after 10 mins by mechanism-based assay; type: ADME

O=C(N[C@H]1C[C@@H]1c1ccccc1)N1CCC(Oc2ccccn2)CC1 (racemic)
IC50 [1]: 27.4 nM
IC50 [2]: 35.4 nM

O=C(N[C@H]1C[C@@H]1c1ccccc1)N1CCC(Oc2cccc(C(F)(F)F)c2)CC1 (racemic)
IC50 [1]: 15.8 nM
IC50 [2]: 10.5 nM

O=C(N[C@H]1C[C@@H]1c1ccccc1)N1CCC(Oc2cnccn2)CC1 (racemic)
IC50 [1]: 26.7 nM
IC50 [2]: 25.6 nM

O=C(O)Cc1ccc(OC2CCN(C(=O)N[C@H]3C[C@@H]3c3ccccc3)CC2)cc1 (relative stereo)
CLint (Liver microsome [3]): < 33 µL/min/mg
IC50 [1]: 43.2 nM
solubility at 1.5 h [4]: > 150 µg/mL
IC50 [2]: 56.6 nM
CLint (Liver microsome [5]): < 10 µL/min/mg

O=C(N[C@H]1C[C@@H]1c1ccccc1)N1CCC(Oc2ccncc2)CC1 (racemic)
IC50 [1]: 24.4 nM
IC50 [2]: 12.3 nM

O=C(N[C@H]1C[C@@H]1c1ccccc1)N1CCC(Oc2cccc(Cl)c2)CC1 (racemic)
IC50 [1]: 12 nM
IC50 [2]: 8 nM

O=C(O)c1ccc(OC2CCN(C(=O)N[C@H]3C[C@@H]3c3ccccc3)CC2)c(Cl)c1 (racemic)
CLint (Liver microsome [3]): < 10 µL/min/mg
IC50 [1]: 2.6 nM
solubility at 1.5 h [4]: > 150 µg/mL
IC50 [2]: 4.1 nM
IC50 (Cytochrome P450 2C19 [6]): > 50000 nM
IC50 (Cytochrome P450 2C8 [7]): > 50000 nM
AUC (Rattus norvegicus [8]): 15900 ng·h/mL
CLint (Liver microsome [5]): < 10 µL/min/mg
F (Rattus norvegicus [9]): 31%

O=C(O)Cc1ccc(OC2CCN(C(=O)N[C@H]3C[C@@H]3c3ccccc3)CC2)c(Cl)c1 (racemic)
CLint (Liver microsome [3]): < 10 µL/min/mg
Activity (Rattus norvegicus [10]): Non-toxic
Activity (Rattus norvegicus [11]): Active
Activity (Rattus norvegicus [12]): Active
IC50 [1]: 4.3 nM
solubility at 1.5 h [4]: > 150 µg/mL
inhibition (Rattus norvegicus [13]): Dose-dependent effect
IC50 [2]: 6.6 nM
inhibition in vivo at 100 mg/kg (Rattus norvegicus [14]): < 20%
Activity (Rattus norvegicus [15]): inactive
IC50 (Cytochrome P450 2C19 [6]): > 50000 nM
IC50 (Cytochrome P450 2C8 [7]): > 50000 nM
AUC (Rattus norvegicus [8]): 30400 ng·h/mL
CLint (Liver microsome [5]): < 10 µL/min/mg
F (Rattus norvegicus [9]): 63%

COc1ccccc1OC1CCN(C(=O)N[C@H]2C[C@@H]2c2ccccc2)CC1 (racemic)
IC50 [1]: 11.3 nM
IC50 [2]: 12.8 nM

O=C(O)c1cccc(OC2CCN(C(=O)N[C@H]3C[C@@H]3c3ccccc3)CC2)c1 (racemic)
CLint (Liver microsome [3]): < 10 µL/min/mg
IC50 [1]: > 100 nM
solubility at 1.5 h [4]: > 150 µg/mL
IC50 [2]: > 100 nM
CLint (Liver microsome [5]): < 10 µL/min/mg

O=C(N[C@H]1C[C@@H]1c1ccccc1)N1CCC(Oc2ccc(-c3nnn[nH]3)cc2)CC1 (racemic)
CLint (Liver microsome [3]): < 33 µL/min/mg
IC50 [1]: 3.3 nM
solubility at 1.5 h [4]: > 150 µg/mL
IC50 [2]: 6.6 nM
IC50 (Cytochrome P450 2C8 [7]): 800 nM
CLint (Liver microsome [5]): < 10 µL/min/mg

O=C(N[C@H]1C[C@@H]1c1ccccc1)N1CCC(Oc2ccc(-c3ccccc3)cc2)CC1 (racemic)
IC50 [1]: 12 nM
IC50 [2]: 6.7 nM

COc1cccc(OC2CCN(C(=O)N[C@H]3C[C@@H]3c3ccccc3)CC2)c1 (relative stereo)
IC50 [1]: 7.4 nM
IC50 [2]: 5.1 nM

O=C(O)c1ccc(OC2CCN(C(=O)N[C@H]3C[C@@H]3c3ccccc3)CC2)cc1 (racemic)
CLint (Liver microsome [3]): < 10 µL/min/mg
IC50 [1]: 30.3 nM
solubility at 1.5 h [4]: > 150 µg/mL
IC50 [2]: 32.2 nM
CLint (Liver microsome [5]): < 10 µL/min/mg

O=C(N[C@H]1C[C@@H]1c1ccccc1)N1CCC(Oc2ccccc2)CC1 (racemic)
IC50 [1]: 18 nM
IC50 [2]: 18.3 nM

O=C(N[C@H]1C[C@@H]1c1ccccc1)N1CCC(Oc2ccc(C(F)(F)F)cc2)CC1 (relative stereo)
IC50 [1]: 29.8 nM
IC50 [2]: 8.9 nM

O=C(N[C@H]1C[C@@H]1c1ccccc1)N1CCC(Oc2ccccc2C(F)(F)F)CC1 (racemic)
IC50 [1]: 2.1 nM
IC50 [2]: 3.2 nM

COc1ccc(OC2CCN(C(=O)N[C@H]3C[C@@H]3c3ccccc3)CC2)cc1 (racemic)
IC50 [1]: 10.2 nM
IC50 [2]: 5 nM

O=C(N[C@H]1C[C@@H]1c1ccccc1)N1CCC(Oc2ccccc2Cl)CC1 (racemic)
IC50 [1]: 2 nM
IC50 [2]: 3.5 nM

Cc1ccc(OC2CCN(C(=O)N[C@H]3C[C@@H]3c3ccccc3)CC2)cc1 (racemic)
IC50 [1]: 14.2 nM
IC50 [2]: 6.8 nM

Cc1ccccc1OC1CCN(C(=O)N[C@H]2C[C@@H]2c2ccccc2)CC1 (racemic)
IC50 [1]: 3.1 nM
solubility at 1.5 h [4]: < 0.2 µg/mL
IC50 [2]: 4.2 nM

CC(C)c1noc(C2CCN(C(=O)N[C@H]3C[C@@H]3c3ccccc3)CC2)n1 (relative stereo)
CLint (Liver microsome [3]): < 10 µL/min/mg
inhibition (INH) (Cytochrome P450 2C8 [16]): Active
solubility at 1.5 h [4]: 41 µg/mL (≈ 116 µM)
IC50 [2]: 8.3 nM
inhibition (INH) (Cytochrome P450 2C19 [17]): Active
CLint (Liver microsome [5]): 79 µL/min/mg

O=C(N[C@H]1C[C@@H]1c1ccccc1)N1CCC(OC(c2ccccc2)c2ccccc2)CC1 (racemic)
IC50 [1]: 27.1 nM
IC50 [2]: 5.2 nM

O=C(N[C@H]1C[C@@H]1c1ccccc1)N1CCC(Oc2ccc(Cl)cc2)CC1 (racemic)
IC50 [1]: 22.4 nM
IC50 [2]: 9.3 nM

O=C(N[C@H]1C[C@@H]1c1ccccc1)N1CCC(Oc2ncccn2)CC1 (racemic)
IC50 [1]: 94.2 nM
IC50 [2]: > 100 nM

O=C(O)c1ccccc1OC1CCN(C(=O)N[C@H]2C[C@@H]2c2ccccc2)CC1 (racemic)
IC50 [1]: > 100 nM
IC50 [2]: > 100 nM

O=C(N[C@H]1C[C@@H]1c1ccccc1)N1CCC(Oc2cccc(-c3ccccc3)c2)CC1 (racemic)
IC50 [1]: 10.7 nM
IC50 [2]: 5.9 nM

Cc1cccc(OC2CCN(C(=O)N[C@H]3C[C@@H]3c3ccccc3)CC2)c1 (racemic)
IC50 [1]: 8.9 nM
IC50 [2]: 6.5 nM

O=C(N[C@H]1C[C@@H]1c1ccccc1)N1CCC(Oc2cccnc2)CC1 (racemic)
IC50 [1]: 25.2 nM
IC50 [2]: 20.2 nM

O=C(N[C@H]1C[C@@H]1c1ccccc1)N1CCC(Oc2ccccc2-c2ccccc2)CC1 (racemic)
IC50 [1]: 14.7 nM
IC50 [2]: 20.7 nM
